Experimental data taken from PMC9154796, “Triazoloquinoxalines-based DNA intercalators-Topo II inhibitors: design, synthesis, docking, ADMET and anti-proliferative evaluations” (Journal of Enzyme Inhibition and Medicinal Chemistry, 2022).

Tests used:
[1] = test system: VERO normal cells; test: Cytotoxicity against VERO normal cell lines; format: cell-based; conditions: for IC50: Chlorocebus sabaeus, VERO normal cells, mean ± SD of three experiments; for fold safer in VERO normal cells compared to breast cancer cell lines (MCF-7): VERO versus MCF-7
Protocol: The cytotoxicity of these compounds against the cancer cell lines was from 3.41 to 9.51 µM. Derivatives 7b, 7c, 7e and 7g are respectively, 7.88, 10.81, 16.16 and 4.50 fold safer in VERO normal cells compared to breast cancer cell lines (MCF-7, the most sensitive cells).
The cytotoxicity assays were performed at Al-Azhar University, Pharmacology & Toxicology Department, Cairo, Egypt. Cancer cells from different cancer cell lines HCT-116, HepG2 and MCF-7, were purchased from ATCC, Manassas, USA and grown on the appropriate growth medium Roswell Park Memorial Institute medium (RPMI 1640) supplemented with […] of streptomycin, 100 units/mL of penicillin and 10% of heat-inactivated foetal bovine serum in a humidified, 5% (v/v) CO2 atmosphere at 37 °C Cytotoxicity assay by 3-[4,5-dimethylthiazole-2-yl]-2,5-diphenyltetrazolium bromide (MTT).
Cancer cell lines were trypsinized, counted and seeded into 96-well microtiter plates.

[2] = target: DNA; test: In vitro DNA/methyl green assay (DNA binding); conditions: DNA/methyl green displacement, mean ± SD of three experiments
Source text: The extremely potent 6e, 7b, 7c, 7e and 7g were further assessed for their DNA-binding according to the reported procedure using methyl green dye[21]^,[22]^,[49]. DNA-binding affinities results were presented as IC50 and briefed in Table 3.
Methyl green dye can bind DNA to form coloured DNA/methyl green reversible complex. These complexes at neutral pH are still stable. The methyl green is displaced from DNA upon intercalating agents addition. Colourless carbinol was formed by the addition of H2O to the dye, leading to a dramatic decrease in spectrophotometric absorbance. ΔA value (the difference between DNA/methyl green complex and free cabinol) provides the simplest means for detecting the DNA-binding affinity and relative binding strength. IC50 values were determined using the GraphPadPrism 5.0 software[21]^,[22]^,[49].

[3] = target: human Topo II (Homo sapiens, UniProt P11388); test: In vitro topoisomerase II inhibitory activity; format: biochemical; conditions: supercoiled pHot1 DNA, mean ± SD of three experiments
Chain of human Topo II (P11388 whole entry): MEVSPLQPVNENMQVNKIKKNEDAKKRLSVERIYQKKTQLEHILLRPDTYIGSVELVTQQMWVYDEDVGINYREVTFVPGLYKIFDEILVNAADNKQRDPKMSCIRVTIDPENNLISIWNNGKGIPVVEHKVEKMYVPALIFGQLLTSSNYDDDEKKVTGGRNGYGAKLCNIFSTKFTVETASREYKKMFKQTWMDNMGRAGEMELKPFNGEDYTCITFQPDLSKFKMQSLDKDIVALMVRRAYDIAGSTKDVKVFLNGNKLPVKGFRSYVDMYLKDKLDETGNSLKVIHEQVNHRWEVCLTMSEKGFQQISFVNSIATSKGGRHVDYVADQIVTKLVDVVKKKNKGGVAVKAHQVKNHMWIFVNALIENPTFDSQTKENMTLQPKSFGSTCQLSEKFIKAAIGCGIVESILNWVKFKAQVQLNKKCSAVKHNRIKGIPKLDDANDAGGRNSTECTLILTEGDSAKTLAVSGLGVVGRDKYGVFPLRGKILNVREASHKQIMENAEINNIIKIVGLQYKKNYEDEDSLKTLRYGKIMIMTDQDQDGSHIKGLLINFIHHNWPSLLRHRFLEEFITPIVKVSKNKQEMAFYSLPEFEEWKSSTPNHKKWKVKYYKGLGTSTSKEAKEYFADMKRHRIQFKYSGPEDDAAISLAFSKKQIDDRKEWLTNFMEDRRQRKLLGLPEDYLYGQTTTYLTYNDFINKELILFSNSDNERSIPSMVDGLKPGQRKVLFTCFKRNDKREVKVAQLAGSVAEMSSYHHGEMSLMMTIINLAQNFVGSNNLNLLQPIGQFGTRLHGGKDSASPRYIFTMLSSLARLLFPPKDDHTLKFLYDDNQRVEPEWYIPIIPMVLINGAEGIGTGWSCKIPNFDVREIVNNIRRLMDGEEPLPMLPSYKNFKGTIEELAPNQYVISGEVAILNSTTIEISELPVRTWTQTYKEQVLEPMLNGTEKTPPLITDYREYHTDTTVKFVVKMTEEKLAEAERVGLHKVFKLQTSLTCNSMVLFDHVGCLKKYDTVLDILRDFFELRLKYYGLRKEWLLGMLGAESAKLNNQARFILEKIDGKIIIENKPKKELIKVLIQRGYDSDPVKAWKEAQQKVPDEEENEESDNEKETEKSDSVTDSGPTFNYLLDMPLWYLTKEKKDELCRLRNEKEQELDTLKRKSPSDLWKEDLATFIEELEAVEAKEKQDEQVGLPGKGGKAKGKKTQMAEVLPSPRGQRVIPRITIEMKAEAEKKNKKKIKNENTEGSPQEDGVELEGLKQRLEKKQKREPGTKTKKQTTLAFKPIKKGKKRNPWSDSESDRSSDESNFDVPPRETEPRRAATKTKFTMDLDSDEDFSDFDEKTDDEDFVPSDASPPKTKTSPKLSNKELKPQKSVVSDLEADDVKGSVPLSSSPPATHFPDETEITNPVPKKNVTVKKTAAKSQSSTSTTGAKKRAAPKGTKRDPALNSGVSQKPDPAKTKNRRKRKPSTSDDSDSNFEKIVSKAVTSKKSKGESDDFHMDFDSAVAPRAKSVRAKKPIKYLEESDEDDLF
Protocol: A mixture of human Topo II (2 µl), substrate super coiled pHot1 DNA (0.25 µg), 50 µg/ml test compound (2 µl), and assay buffer (4 µl). […] Then, the DNA was run for 1–2 h on 1% agarose gel in BioRad gel electrophoresis system followed by staining with GelRedTM stain for 2 h and destained for 15 min with TAE buffer. The gel was imaged via BioRad’s Gel DocTMEZ system. Both supercoiled and linear strands of DNA were incorporated into the gel as markers for DNA-Topo II intercalators. By using the GraphPad Prism version 5.0, the values of IC50 were calculated. Each reaction was performed in duplicate, and at least three independent determinations of each IC50 were made.

[4] = test system: HepG2; test: MTT colorimetric anti-proliferative assay; conditions: Homo sapiens, HepG2, 72 h, read-out: IC50 HepG2
[5] = test system: HCT116; test: MTT colorimetric anti-proliferative assay; conditions: Homo sapiens, HCT-116, 72 h, read-out: IC50 HCT116
[6] = test system: MCF-7; test: MTT colorimetric anti-proliferative assay; conditions: Homo sapiens, MCF7, 72 h, read-out: IC50 MCF-7
[7] = test system: melanoma A375 cancer cells; set-up: method as in PMID 18513976; conditions: cited from earlier work

Row | SMILES | IC50 [1] [µM] | fold safer in VERO normal cells compared to breast cancer cell lines (MCF-7) [1] [fold] | IC50 [2] [µM] | IC50 [3] [µM] | IC50 [4] [µM] | IC50 [5] [µM] | IC50 [6] [µM] | melting point [°C] | fold more active than fotemustine [7] [fold] | fold more active than imiquimod [7] [fold]
1 | Clc1ccc(C2CC(c3ccc(Nc4nc5ccccc5n5cnnc45)cc3)=NN2)cc1 (stereo not shown) [Compound 7b, N-{4-[5–(4-Chlorophenyl)-4,5-dihydro-1H-pyrazol-3-yl]phenyl}-[1,2, 4]triazolo[4,3-a]quinoxalin-4-amine] | 46.32 ± 0.2 | 7.88 | 32.5 ± 3 | 1.05 ± 0.4 | 7.46 ± 0.13 | 6.9 ± 0.95 | 5.88 ± 0.74 |  |  | 
2 | COc1ccc(C=CC(=O)c2ccc(Nc3nc4ccccc4n4cnnc34)cc2)cc1 [Compound 6f, 1-{4-([1,2, 4]Triazolo[4,3-a]quinoxalin-4-ylamino)phenyl}-3–(4-methoxyphenyl)prop-2-en-1-one] |  |  |  |  | 18 ± 1.6 | 16.4 ± 1.7 | 13.2 ± 1.39 | 250 to 253 |  | 
3 | O=[N+]([O-])c1ccc(C2CC(c3ccc(Nc4nc5ccccc5n5cnnc45)cc3)=NN2)cc1 (stereo not shown) [Compound 7g, N-{4-[5–(4-Nitrophenyl)-4,5-dihydro-1H-pyrazol-3-yl]phenyl} -[1,2, 4]triazolo[4,3-a]quinoxalin-4-amine] | 38.77 ± 0.16 | 4.50 | 36.5 ± 0.4 | 1.22 ± 0.4 | 9.51 ± 1.1 | 8.96 ± 0.37 | 8.62 ± 0.95 |  |  | 
4 | Fc1ccc(C2CC(c3ccc(Nc4nc5ccccc5n5cnnc45)cc3)=NN2)cc1 (stereo not shown) [Compound 7c, N-{4-[5–(4-Fluorophenyl)-4,5-dihydro-1H-pyrazol-3-yl]phenyl}-[1,2, 4]triazolo[4,3-a]quinoxalin-4-amine] | 48.11 ± 0.2 | 10.81 | 31.2 ± 2.9 | 0.94 ± 0.4 | 6.33 ± 0.14 | 6.22 ± 0.63 | 4.45 ± 0.14 |  |  | 
5 | O=C(C=Cc1ccccc1)c1ccc(Nc2nc3ccccc3n3cnnc23)cc1 [Compound 6a, 1-{4-([1,2, 4]Triazolo[4,3-a]quinoxalin-4-ylamino)phenyl}-3-phenylprop-2-en-1-one] |  |  |  |  | 14.06 ± 0.13 | 11.2 ± 1.2 | 10.1 ± 1.31 | 275 to 277 |  | 
6 | Cc1ccc(C2CC(c3ccc(Nc4nc5ccccc5n5cnnc45)cc3)=NN2)cc1 (stereo not shown) [Compound 7e, N-{4-[5-(p-Tolyl)-4,5-dihydro-1H-pyrazol-3-yl]phenyl}-[1,2, 4]triazolo[4,3-a]quinoxalin-4-amine] | 55.09 ± 0.16 | 16.16 | 29.1 ± 2.2 | 0.89 ± 0.4 | 6.15 ± 1.2 | 5.75 ± 0.37 | 3.41 ± 0.43 |  |  | 
7 | c1ccc(C2CC(c3ccc(Nc4nc5ccccc5n5cnnc45)cc3)=NN2)cc1 (stereo not shown) [Compound 7a, N-{4–(5-Phenyl-4,5-dihydro-1H-pyrazol-3-yl)phenyl}-[1,2, 4]triazolo[4,3-a]quinoxalin-4-amine] |  |  |  |  | 20.3 ± 1.9 | 18.2 ± 1.6 | 15.4 ± 1.42 | 150 to 152 |  | 
8 | Clc1cccc(Cl)c1C1CC(c2ccc(Nc3nc4ccccc4n4cnnc34)cc2)=NN1 (stereo not shown) [Compound 7d, N-{4-[5–(2,6-Dichlorophenyl)-4,5-dihydro-1H-pyrazol-3-yl]phenyl}-[1,2, 4]triazolo[4,3-a]quinoxalin-4-amine] |  |  |  |  | 12 ± 1.2 | 10.2 ± 0.22 | 7.56 ± 0.92 | 176 to 178 |  | 
9 | Cc1ccc(C=CC(=O)c2ccc(Nc3nc4ccccc4n4cnnc34)cc2)cc1 [Compound 6e, 1-{4-([1,2, 4]Triazolo[4,3-a]quinoxalin-4-ylamino)phenyl}-3-(p-tolyl)prop-2-en-1-one] |  |  | 38 ± 0.4 | 1.27 ± 0.4 | 10.9 ± 1.9 | 10.2 ± 1.7 | 9.95 | 245 to 247 |  | 
10 | O=C(C=Cc1c(Cl)cccc1Cl)c1ccc(Nc2nc3ccccc3n3cnnc23)cc1 [Compound 6d, 1-{4-([1,2, 4]Triazolo[4,3-a]quinoxalin-4-ylamino)phenyl}-3–(2,6-dichlorophenyl)prop-2-en-1-one] |  |  |  |  | 16.9 ± 1.4 | 19.4 ± 1.7 | 14.6 ± 1.57 | 260 to 263 |  | 
11 | COc1cccc2c1C(=O)c1c(O)c3c(c(O)c1C2=O)C[C@@](O)(C(=O)CO)C[C@@H]3O[C@H]1C[C@H](N)[C@H](O)[C@H](C)O1 [Doxorubicin, reference compound] |  |  | 31.3 ± 1.8 |  |  |  | 6.75 ± 0.4 |  |  | 
12 | O=[N+]([O-])c1cccc(C2CC(c3ccc(Nc4nc5ccccc5n5cnnc45)cc3)=NN2)c1 (stereo not shown) [Compound 7f, N-{4-[5–(3-Nitrophenyl)-4,5-dihydro-1H-pyrazol-3-yl]phenyl} -[1,2, 4]triazolo[4,3-a]quinoxalin-4-amine] |  |  |  |  | 17.3 ± 1.9 | 16.2 ± 1.6 | 14.5 ± 1.03 | 195 to 197 |  | 
13 | O=C(C=Cc1ccc(Cl)cc1)c1ccc(Nc2nc3ccccc3n3cnnc23)cc1 [Compound 6b, 1-{4-([1,2, 4]Triazolo[4,3-a]quinoxalin-4-ylamino)phenyl}-3–(4-chlorophenyl)prop-2-en-1-one] |  |  |  |  | 35.2 ± 3.3 | 31.2 ± 1.4 | 25.8 ± 2.8 | 240 to 243 |  | 
14 | O=C(C=Cc1cccc([N+](=O)[O-])c1)c1ccc(Nc2nc3ccccc3n3cnnc23)cc1 [Compound 6g, 1-{4-([1,2, 4]Triazolo[4,3-a]quinoxalin-4-ylamino)phenyl}-3–(3-nitrophenyl)prop-2-en-1-one] |  |  |  |  | 17.2 ± 1.5 | 13.7 ± 1.7 | 12.2 ± 1.03 | 257 to 259 |  | 
15 | O=C(C=Cc1ccc(F)cc1)c1ccc(Nc2nc3ccccc3n3cnnc23)cc1 [Compound 6c, 1-{4-([1,2, 4]Triazolo[4,3-a]quinoxalin-4-ylamino)phenyl}-3–(4-fluorophenyl)prop-2-en-1-one] |  |  |  |  | 11.3 ± 1.1 | 9.53 ± 0.93 | 8.61 ± 0.62 | 247 to 249 |  | 
16 | CC(=O)c1ccc(Nc2nc3ccccc3n3cnnc23)cc1 [Compound 5, 1-{4-([1,2, 4]Triazolo[4,3-a]quinoxalin-4-ylamino)phenyl}ethan-1-one] |  |  |  |  | 12.7 ± 0.13 | 11.4 ± 1.4 | 10.3 ± 1.28 | 171 to 172 |  | 
17 | O=C(C=Cc1ccc([N+](=O)[O-])cc1)c1ccc(Nc2nc3ccccc3n3cnnc23)cc1 [Compound 6h, 1-{4-([1,2, 4]Triazolo[4,3-a]quinoxalin-4-ylamino)phenyl}-3–(4-nitrophenyl)prop-2-en-1-one] |  |  |  |  | 15.6 ± 1.2 | 12.4 ± 1.1 | 11.7 ± 1.68 | 261 to 263 |  | 
18 | CNc1nc2ccccc2n2c(CCc3ccccc3)cnc12 [EAPB0203] |  |  |  |  |  |  |  |  | 110 | 45
